# Measured values: patent US11053204B2, “Pyrimidinyloxy benzene derivatives as herbicides” (FMC Corporation, priority 2015, dated 2021)
# Experiments:
# Format in all cases: in vivo
# [1] = test system: blackgrass (Alopecurus myosuroides); experiment: Test C preemergence, plant response rating; details: Preemergence
# Method in brief: (§1)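 After sowing in loam–sand blend or silt loam, pots were sprayed preemergence; separately grown 1- to 4-leaf plants were sprayed postemergence. Following 13 to 15 d under greenhouse conditions, injury was rated visually on a 0 to 100 scale.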
# corn (Zea mays) [2] = experiment: Test C preemergence, plant response rating; details: Preemergence
# Method in brief: as §1
# [3] = test system: crabgrass, large (large crabgrass, Digitaria sanguinalis); experiment: Test C preemergence, plant response rating; details: Preemergence
# Method in brief: as §1
# [4] = test system: foxtail, giant (giant foxtail, Setaria faberii); experiment: Test C preemergence, plant response rating; details: Preemergence
# Method in brief: as §1
# [5] = test system: lambsquarters (Chenopodium album); experiment: Test C preemergence, plant response rating; details: Preemergence
# Method in brief: as §1
# [6] = test system: morningglory (Ipomoea coccinea); experiment: Test C preemergence, plant response rating; details: Preemergence
# Method in brief: as §1
# [7] = test system: nutsedge, yellow (yellow nutsedge, Cyperus esculentus); experiment: Test C preemergence, plant response rating; details: Preemergence
# Method in brief: as §1
# [8] = test system: oilseed rape (Brassica napus); experiment: Test C preemergence, plant response rating; details: Preemergence
# Method in brief: as §1
# [9] = test system: ryegrass, Italian (Italian ryegrass, Lolium multiflorum); experiment: Test C preemergence, plant response rating; details: Preemergence
# Method in brief: as §1
# soybean (Glycine max) [10] = experiment: Test C preemergence, plant response rating; details: Preemergence
# Method in brief: as §1
# [11] = test system: velvetleaf (Abutilon theophrasti); experiment: Test C preemergence, plant response rating; details: Preemergence
# Method in brief: as §1
# [12] = test system: waterhemp (common waterhemp, Amaranthus rudis); experiment: Test C preemergence, plant response rating; details: Preemergence
# Method in brief: as §1
# [13] = test system: wheat (winter wheat, Triticum aestivum); experiment: Test C preemergence, plant response rating; details: Preemergence
# Method in brief: as §1
# corn (Zea mays) [14] = experiment: Test C postemergence, plant response rating; details: for Corn plant response rating: scale 0 to 100 (0 no effect, 100 complete control)
# Method in brief: as §1
# [15] = test system: crabgrass, large (large crabgrass, Digitaria sanguinalis); experiment: Test C postemergence, plant response rating; details: for Crabgrass, Large plant response rating: scale 0 to 100 (0 no effect, 100 complete control)
# Method in brief: as §1
# [16] = test system: foxtail, giant (giant foxtail, Setaria faberii); experiment: Test C postemergence, plant response rating; details: for Foxtail, Giant plant response rating: scale 0 to 100 (0 no effect, 100 complete control)
# Method in brief: as §1
# [17] = test system: galium (catchweed bedstraw, Galium aparine); experiment: Test C postemergence, plant response rating; details: for Galium plant response rating: scale 0 to 100 (0 no effect, 100 complete control)
# Method in brief: as §1
# kochia (Kochia scoparia) = experiment: Test C postemergence, plant response rating; details: for Kochia plant response rating: scale 0 to 100 (0 no effect, 100 complete control)
# Method in brief: as §1
# [18] = test system: oilseed rape (Brassica napus); experiment: Test C postemergence, plant response rating; details: for Oilseed Rape plant response rating: scale 0 to 100 (0 no effect, 100 complete control)
# Method in brief: as §1
# soybean (Glycine max) [19] = experiment: Test C postemergence, plant response rating; details: for Soybean plant response rating: scale 0 to 100 (0 no effect, 100 complete control)
# Method in brief: as §1
# [20] = test system: waterhemp (common waterhemp, Amaranthus rudis); experiment: Test C postemergence, plant response rating
# Method in brief: as §1
structure (smiles),measurement,setting,value
CCCC(=O)c1c(Oc2ncc(Cl)cn2)cccc1C(F)(F)F [Compound 136],"Plant response rating, Blackgrass","[1]; 125 g ai/ha, scale of 0 to 100",95
same,"Plant response rating, Blackgrass","[1]; 16 g ai/ha, scale 0 to 100",0
same,"Plant response rating, Blackgrass","[1]; 31 g ai/ha, scale 0 to 100",35
same,"Plant response rating, Blackgrass","[1]; 62 g ai/ha, scale 0 to 100",60
same,"Plant response rating, Corn","corn (Zea mays) [2]; 125 g ai/ha, scale of 0 to 100",5
same,"Plant response rating, Corn","corn (Zea mays) [2]; 16 g ai/ha, scale 0 to 100",0
same,"Plant response rating, Corn","corn (Zea mays) [2]; 31 g ai/ha, scale 0 to 100",0
same,"Plant response rating, Corn","corn (Zea mays) [2]; 62 g ai/ha, scale 0 to 100",5
same,"Plant response rating, Crabgrass, Large","[3]; 125 g ai/ha, scale of 0 to 100",100
same,"Plant response rating, Crabgrass, Large","[3]; 16 g ai/ha, scale 0 to 100",50
same,"Plant response rating, Crabgrass, Large","[3]; 31 g ai/ha, scale 0 to 100",85
same,"Plant response rating, Crabgrass, Large","[3]; 62 g ai/ha, scale 0 to 100",100
same,"Plant response rating, Foxtail, Giant","[4]; 125 g ai/ha, scale of 0 to 100",100
same,"Plant response rating, Foxtail, Giant","[4]; 31 g ai/ha, scale 0 to 100",65
same,"Plant response rating, Foxtail, Giant","[4]; 62 g ai/ha, scale 0 to 100",70
same,"Plant response rating, Lambsquarters","[5]; 125 g ai/ha, scale of 0 to 100",80
same,"Plant response rating, Lambsquarters","[5]; 31 g ai/ha, scale 0 to 100",30
same,"Plant response rating, Lambsquarters","[5]; 62 g ai/ha, scale 0 to 100",25
same,"Plant response rating, Morningglory","[6]; 125 g ai/ha, scale of 0 to 100",30
same,"Plant response rating, Morningglory","[6]; 31 g ai/ha, scale 0 to 100",0
same,"Plant response rating, Morningglory","[6]; 62 g ai/ha, scale 0 to 100",5
same,"Plant response rating, Nutsedge, Yellow","[7]; 125 g ai/ha, scale of 0 to 100",5
same,"Plant response rating, Nutsedge, Yellow","[7]; 31 g ai/ha, scale 0 to 100",0
same,"Plant response rating, Nutsedge, Yellow","[7]; 62 g ai/ha, scale 0 to 100",0
same,"Plant response rating, Oilseed Rape","[8]; 125 g ai/ha, scale of 0 to 100",98
same,"Plant response rating, Oilseed Rape","[8]; 31 g ai/ha, scale 0 to 100",5
same,"Plant response rating, Oilseed Rape","[8]; 62 g ai/ha, scale 0 to 100",70
same,"Plant response rating, Ryegrass, Italian","[9]; 125 g ai/ha, scale of 0 to 100",65
same,"Plant response rating, Ryegrass, Italian","[9]; 31 g ai/ha, scale 0 to 100",30
same,"Plant response rating, Ryegrass, Italian","[9]; 62 g ai/ha, scale 0 to 100",35
same,"Plant response rating, Soybean","soybean (Glycine max) [10]; 125 g ai/ha, scale of 0 to 100",40
same,"Plant response rating, Soybean","soybean (Glycine max) [10]; 31 g ai/ha, scale 0 to 100",0
same,"Plant response rating, Soybean","soybean (Glycine max) [10]; 62 g ai/ha, scale 0 to 100",15
same,"Plant response rating, Velvetleaf","[11]; 125 g ai/ha, scale of 0 to 100",65
same,"Plant response rating, Velvetleaf","[11]; 31 g ai/ha, scale 0 to 100",5
same,"Plant response rating, Velvetleaf","[11]; 62 g ai/ha, scale 0 to 100",15
same,"Plant response rating, Waterhemp","[12]; 125 g ai/ha, scale of 0 to 100",100
same,"Plant response rating, Waterhemp","[12]; 31 g ai/ha, scale 0 to 100",100
same,"Plant response rating, Waterhemp","[12]; 62 g ai/ha, scale 0 to 100",100
same,"Plant response rating, Wheat","[13]; 125 g ai/ha, scale of 0 to 100",10
same,"Plant response rating, Wheat","[13]; 31 g ai/ha, scale 0 to 100",0
same,"Plant response rating, Wheat","[13]; 62 g ai/ha, scale 0 to 100",0
same,"Plant response rating, Corn","corn (Zea mays) [14]; 16 g ai/ha, scale of 0 to 100",5
same,"Plant response rating, Corn","corn (Zea mays) [14]; 31 g ai/ha, scale 0 to 100",10
same,Corn plant response rating,corn (Zea mays) [14]; 62 g ai/ha,20
same,Corn plant response rating,corn (Zea mays) [14]; 125 g ai/ha,20
same,"Plant response rating, Crabgrass, Large","[15]; 16 g ai/ha, scale of 0 to 100",5
same,"Plant response rating, Crabgrass, Large","[15]; 31 g ai/ha, scale 0 to 100",5
same,"Crabgrass, Large plant response rating",[15]; 62 g ai/ha,10
same,"Crabgrass, Large plant response rating",[15]; 125 g ai/ha,30
same,"Plant response rating, Foxtail, Giant","[16]; 16 g ai/ha, scale of 0 to 100",10
same,"Plant response rating, Foxtail, Giant","[16]; 31 g ai/ha, scale 0 to 100",20
same,"Foxtail, Giant plant response rating",[16]; 62 g ai/ha,10
same,"Foxtail, Giant plant response rating",[16]; 125 g ai/ha,25
same,"Plant response rating, Galium","[17]; 16 g ai/ha, scale of 0 to 100",50
same,"Plant response rating, Galium","[17]; 31 g ai/ha, scale 0 to 100",65
same,Galium plant response rating,[17]; 62 g ai/ha,60
same,Galium plant response rating,[17]; 125 g ai/ha,75
same,"Plant response rating, Kochia","kochia (Kochia scoparia); 16 g ai/ha, scale of 0 to 100",80
same,"Plant response rating, Kochia","kochia (Kochia scoparia); 31 g ai/ha, scale 0 to 100",80
same,Kochia plant response rating,kochia (Kochia scoparia); 62 g ai/ha,85
same,Kochia plant response rating,kochia (Kochia scoparia); 125 g ai/ha,90
same,"Plant response rating, Oilseed Rape","[18]; 16 g ai/ha, scale of 0 to 100",65
same,"Plant response rating, Oilseed Rape","[18]; 31 g ai/ha, scale 0 to 100",80
same,Oilseed Rape plant response rating,[18]; 62 g ai/ha,80
same,Oilseed Rape plant response rating,[18]; 125 g ai/ha,80
same,"Plant response rating, Soybean","soybean (Glycine max) [19]; 16 g ai/ha, scale of 0 to 100",30
same,"Plant response rating, Soybean","soybean (Glycine max) [19]; 31 g ai/ha, scale 0 to 100",40
same,Soybean plant response rating,soybean (Glycine max) [19]; 62 g ai/ha,50
same,Soybean plant response rating,soybean (Glycine max) [19]; 125 g ai/ha,40
same,"Plant response rating, Waterhemp","[20]; 16 g ai/ha, scale of 0 to 100",70
same,"Plant response rating, Waterhemp","[20]; 31 g ai/ha, scale 0 to 100",70
same,Waterhemp plant response rating,"[20]; 125 g ai/ha, scale 0 to 100 (0 no effect, 100 complete control)",75
